Assays:
Type in all cases: biochemical
p38 α [1] = target: T1, p38 α (Homo sapiens, UniProt Q16539); experiment: ADP-Glo kinase assay (Promega CMGC-1), % inhibition at […]
T1 construct: gene MAPK14

p38 α [2] = target: T1, p38 α; experiment: ADP-Glo kinase assay (Promega CMGC-1 kinase selectivity profiling system), dose response […]
p38 α [3] = target: T1, p38 α; experiment: ADP-Glo kinase assay (Promega CMGC-1 kinase selectivity profiling system)

T1 sequence (Q16539 2-360): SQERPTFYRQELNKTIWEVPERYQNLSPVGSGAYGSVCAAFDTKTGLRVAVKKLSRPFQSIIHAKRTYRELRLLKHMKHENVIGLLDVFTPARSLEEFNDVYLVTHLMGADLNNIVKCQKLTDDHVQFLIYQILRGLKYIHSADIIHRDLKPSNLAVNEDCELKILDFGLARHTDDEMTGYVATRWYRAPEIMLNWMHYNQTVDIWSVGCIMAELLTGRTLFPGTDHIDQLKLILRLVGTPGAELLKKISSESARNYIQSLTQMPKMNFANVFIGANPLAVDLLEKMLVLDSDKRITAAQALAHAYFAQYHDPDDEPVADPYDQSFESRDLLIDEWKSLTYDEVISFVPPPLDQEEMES

## O=C(/C=C/c1ccc(O)c(O)c1)N[C@@H](Cc1c[nH]c2ccccc12)C(=O)O [Javamide-II, javamide-II]
p38 α [1]
  inhibition at 5 µM: 31.5%

## CCOC(=O)[C@H](Cc1c[nH]c2ccccc12)NC(=O)/C=C/c1ccc(O)c(O)c1 [Javamide-II-ethyl, javamide-II-O-ethyl ester]
p38 α [2]
  IC50: 9.9 µM

## COC(=O)[C@H](Cc1c[nH]c2ccccc12)NC(=O)/C=C/c1ccc(O)c(O)c1 [Javamide-II-methyl, Methyl (E)-(3-(3,4-dihydroxyphenyl)acryloyl) tryptophanate]
p38 α [3]
  IC50: 12 µM

From paper PMC5751305, “In Silico Screening and In Vitro Activity Measurement of Javamide Analogues as Potential p38 MAPK Inhibitors” (International Journal of Molecular Sciences, 2017)
